Among the data in US9328138B2 (priority 2011, dated 2016) are Ki values, retold here.

The target in assay [1] is T1, HCV genotype 1b (BK) NS3 modified enzyme with a R155K mutation (Hepatitis C virus genotype 1b, UniProt P26663, R1181K).
T1 construct: HCV genotype 1b (BK) NS3 modified enzyme
The assay is described as follows: HCV NS3 protease time-resolved fluorescence (TRF) assay, genotype 1b R155K. The assay is classed as biochemical. Particulars: Ki 1b R155K, genotype 1b (BK) NS3 R155K; single value. An outline of the steps: (§1)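 Pre-incubation of NS3/NS4A protease with inhibitor for 10 min in pH 7.5 HEPES buffer with 10 mM DTT; 25 nM TRF peptide substrate, hydrolysis 6 h at room temperature. Fluorescence read at ex 340/em 615 nm with 400 μs delay, enzyme level set for S/B 5-20; IC50 by four-parameter fit.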

Assay [2] has as its target HCV NS3 protease genotype 3a (3A-1) (Hepatitis C virus genotype 3a, UniProt Q81258). The assay is described as follows: HCV NS3 protease time-resolved fluorescence (TRF) assay, genotype 3a. Particulars: Ki 3a. The assay is classed as biochemical. An outline of the steps: as §1

As for `C=C[C@@H]1C[C@]1(NC(=O)[C@@H]1C[C@@H]2CN1C(=O)[C@H](C(C)(C)C)NC(=O)O[C@@H]1CCC[C@H]1CCCCCc1c(nc3ccccc3c1O)O2)C(=O)NS(=O)(=O)C1(COCc2ccccc2)CC1` [Example 36, (3aR,7S,10S,12R,24aR)-N-{(1R,2S)-1-[({1-[(benzyloxy)methyl]cyclopropyl}sulfonyl)carbamoyl]-2-ethenylcyclopropyl}-7-tert-butyl-19-hydroxy-5,8-dioxo-1,2,3,3a,5,6,7,8,11,12, 20,21,22,23,24,24a-hexadeca hydro-10H-9,12-methanocyclopenta[18,19][1,10,3,6] dioxadiazacyclononadecino[11,12-b] quinoline-10-carboxamide], the inhibitory constant (Ki) (commonly the dissociation constant of the complex between target and ligand, obtained from inhibition or displacement) in assay [1] was 0.15 nM; in assay [2], 3.2 nM.

In the case of `C=C[C@@H]1C[C@]1(NC(=O)[C@@H]1C[C@@H]2CN1C(=O)[C@H](C(C)(C)C)NC(=O)O[C@@H]1CCC[C@H]1CCCCCc1c(nc3ccccc3c1O)O2)C(=O)NS(=O)(=O)C1(C(=C)C)CC1` [Example 37, (3aR,7S,10S,12R,24aR)-7-tert-butyl-N-[(1R, 2S)-2-ethenyl-1-({[1-(prop-1-en-2-yl)cyclopropyl]sulfonyl}carbamoyl)cyclopropyl]-19-hydroxy-5,8-dioxo-1,2,3,3a,5,6,7,8,11,12,20, 21,22,23,24,24a-hexadecahydro-10H-9,12-methanocyclopenta[18,19][1,10,3,6] dioxadiazacyclononadecino[11,12-b]quinoline-10-carboxamide], the Ki in assay [1] is 0.16 nM; in assay [2], 6 nM.

In the case of `C=C[C@@H]1C[C@]1(NC(=O)[C@@H]1C[C@@H]2CN1C(=O)[C@H](C1CCCC1)NC(=O)O[C@@H]1CCC[C@H]1CC/C=C/Cc1c(nc3ccccc3c1OP(=O)(OCC)OCC)O2)C(=O)NS(=O)(=O)C1CC1` [Example 38, (3aR,7S,10S,12R,21E,24aS)-7-cyclopentyl-10-({(1R,2S)-1-[(cyclopropylsulfonyl)carbamoyl]-2-ethenylcyclopropyl}carbamoyl)-5,8-dioxo-1,2,3,3a,5,6,7,8,11,12,20,23,24,24a-tetradecahydro-10H-9,12-methanocyclopenta[18,19][1,10,3,6]dioxadiazacyclononadecino[11,12-b]quinolin-19-yl diethyl phosphate], the inhibition constant (Ki) in assay [1] came out at 1.2 nM; in assay [2], 94 nM.

On to `C=C[C@@H]1C[C@]1(NC(=O)[C@@H]1C[C@@H]2CN1C(=O)[C@H](C1CCCC1)NC(=O)O[C@@H]1CCC[C@H]1CC/C=C/Cc1c(nc3ccccc3c1OC(C)=O)O2)C(=O)NS(=O)(=O)C1CC1` [Example 39, (3aR,7S,10S,12R,21E,24aS)-7-cyclopentyl-10-({(1R,2S)-1-[(cyclopropylsulfonyl)carbamoyl]-2-ethenylcyclopropyl}carbamoyl)-5,8-dioxo-1,2,3,3a,5,6,7,8,11,12,20,23,24,24a-tetradecahydro-10H-9,12-methanocyclopenta[18,19][1,10,3,6]dioxadiazacyclononadecino[11,12-b]quinolin-19-yl acetate], for which the Ki in assay [1] is 0.13 nM; in assay [2], 3.5 nM.

For the compound `C=C[C@@H]1C[C@]1(NC(=O)[C@@H]1C[C@@H]2CN1C(=O)[C@H](C1CCCC1)NC(=O)O[C@@H]1CCC[C@H]1CC/C=C/Cc1c(nc3ccccc3c1OC(=O)C(C)C)O2)C(=O)NS(=O)(=O)C1CC1` [Example 40, (3aR,7S,10S,12R,21E,24aS)-7-cyclopentyl-10-({(1R,2S)-1-[(cyclopropylsulfonyl)carbamoyl]-2-ethenylcyclopropyl}carbamoyl)-5,8-dioxo-1,2,3,3a,5,6,7,8,11,12,20,23,24,24a-tetradecahydro-10H-9,12-methanocyclopenta[18,19][1,10,3,6]dioxadiazacyclononadecino[11,12-b]quinolin-19-yl 2-methylpropanoate], the figures for the inhibition constant Ki in assay [1] and in assay [2] were 1.3 nM and 27 nM, respectively.

With `C=C[C@@H]1C[C@]1(NC(=O)[C@@H]1C[C@@H]2CN1C(=O)[C@H](C1CCCC1)NC(=O)O[C@@H]1CCC[C@H]1CC/C=C/Cc1c(nc3ccccc3c1OC(=O)CC(C)C)O2)C(=O)NS(=O)(=O)C1CC1` [Example 41, (3aR,7S,10S,12R,21E,24aS)-7-cyclopentyl-10-({(1R,2S)-1-[(cyclopropylsulfonyl)carbamoyl]-2-ethenylcyclopropyl}carbamoyl)-5,8-dioxo-1,2,3,3a,5,6,7,8,11,12,20,23,24,24a-tetradecahydro-10H-9,12-methanocyclopenta[18,19][1,10,3,6]dioxadiazacyclononadecino[11,12-b]quinolin-19-yl 3-methylbutanoate], the Ki in assay [1] amounted to 6.6 nM; in assay [2], 73 nM.

As to `C=C[C@@H]1C[C@]1(NC(=O)[C@@H]1C[C@@H]2CN1C(=O)[C@H](C1CCCC1)NC(=O)O[C@@H]1CCC[C@H]1CC/C=C/Cc1c(nc3ccccc3c1OCCN1CCOC1=O)O2)C(=O)NS(=O)(=O)C1CC1` [Example 42, (3aR,7S,10S,12R,21E,24aS)-7-cyclopentyl-N-{(1R,2S)-1-[(cyclopropylsulfonyl)carbamoyl]-2-ethenylcyclopropyl}-5,8-dioxo-19-[2-(2-oxo-1,3-oxazolidin-3-yl)ethoxy]-1,2,3,3a,5,6,7,8,11,12,20,23,24,24a-tetradecahydro-10H-9,12-methanocyclopenta[18,19][1,10,3,6]dioxadiazacyclononadecino[11,12-b]quinoline-10-carboxamide], the Ki amounted to 0.073 nM in assay [1] and 1.5 nM in assay [2].

For the compound `C=C[C@@H]1C[C@]1(NC(=O)[C@@H]1C[C@@H]2CN1C(=O)[C@H](C1CCCC1)NC(=O)O[C@@H]1CCC[C@H]1CC/C=C/Cc1c(nc3ccccc3c1OCCc1ccccn1)O2)C(=O)NS(=O)(=O)C1CC1` [Example 43, (3aR,7S,10S,12R,21E,24aS)-7-cyclopentyl-N-{(1R,2S)-1-[(cyclopropylsulfonyl)carbamoyl]-2-ethenylcyclopropyl}-5,8-dioxo-19-[2-(pyridin-2-yl)ethoxy]-1,2,3,3a, 5,6,7,8,11,12,20,23,24,24a-tetradecahydro-10H-9,12-methanocyclopenta [18,19][1,10,3,6]dioxadiazacyclonona decino[11,12-b]quinoline-10-carboxamide], the Ki in assay [1] came out at 0.28 nM; in assay [2], 9.9 nM.

`C=C[C@@H]1C[C@]1(NC(=O)[C@@H]1C[C@@H]2CN1C(=O)[C@H](C1CCCC1)NC(=O)O[C@@H]1CCC[C@H]1CC/C=C/Cc1c(nc3ccccc3c1OCCn1cccn1)O2)C(=O)NS(=O)(=O)C1CC1` [Example 44, (3aR,7S,10S,12R,21E,24aS)-7-cyclopentyl-N-{(1R,2S)-1-[(cyclopropylsulfonyl)carbamoyl]-2-ethenylcyclopropyl}-5,8-dioxo-19-[2-(1H-pyrazol-1-yl)ethoxy]-1,2,3,3a,5,6,7,8,11,12,20,23,24,24a-tetra decahydro-10H-9,12-methanocyclopenta[18,19][1,10,3,6]dioxadiazacyclonona decino[11,12-b] quinoline-10-carboxamide]: the Ki in assay [1] turned out to be 0.25 nM; in assay [2] it was 7.9 nM.

As to `C=C[C@@H]1C[C@]1(NC(=O)[C@@H]1C[C@@H]2CN1C(=O)[C@H](C(C)(C)C)NC(=O)O[C@@H]1CCC[C@H]1CC/C=C/Cc1c(nc3ccccc3c1OCCCN1CCCCC1)O2)C(=O)NS(=O)(=O)C1CC1` [Example 45, (3aR,7S,10S,12R,21E,24aS)-7-tert-butyl-N-{(1R,2S)-1-[(cyclopropylsulfonyl)carbamoyl]-2-ethenylcyclopropyl}-5,8-dioxo-19-[3-(piperidin-1-yl)propoxy]-1,2,3,3a,5,6,7,8,11, 12,20,23,24,24a-tetradecahydro-10H-9,12-methanocyclopenta[18,19][1,10,3,6]dioxa diazacyclononadecino[11,12-b]quinoline-10-carboxamide], the Ki was 0.1 nM in assay [1] and 0.5 nM in assay [2].

On to `C=C[C@@H]1C[C@]1(NC(=O)[C@@H]1C[C@@H]2CN1C(=O)[C@H](C1CCCC1)NC(=O)O[C@@H]1CCC[C@H]1CC/C=C/Cc1c(nc3ccccc3c1OCCOC)O2)C(=O)NS(=O)(=O)C1CC1` [Example 46, (3aR,7S,10S,12R,21E,24aS)-7-cyclopentyl-N-{(1R,2S)-1-[(cyclopropylsulfonyl)carbamoyl]-2-ethenylcyclopropyl}-19-(2-methoxyethoxy)-5,8-dioxo-1,2,3,3a,5,6,7,8,11,12,20,23,24,24a-tetradecahydro-10H-9,12-methanocyclopenta[18,19][1,10,3,6] dioxadiazacyclononadecino[11,12-b] quinoline-10-carboxamide], for which the inhibition constant (Ki) in assay [1] was found to be 0.15 nM; in assay [2], 4 nM.

Take `C=C[C@@H]1C[C@]1(NC(=O)[C@@H]1C[C@@H]2CN1C(=O)[C@H](C1CCCC1)NC(=O)O[C@@H]1CCC[C@H]1CC/C=C/Cc1c(nc3ccccc3c1OCCCOCCOC)O2)C(=O)NS(=O)(=O)C1CC1` [Example 47, (3aR,7S,10S,12R,21E,24aS)-7-cyclopentyl-N-{(1R,2S)-1-[(cyclopropylsulfonyl)carbamoyl]-2-ethenylcyclopropyl}-19-[3-(2-methoxyethoxy)propoxy]-5,8-dioxo-1,2,3,3a,5,6,7,8,11,12,20,23,24,24a-tetradeca-hydro-10H-9,12-methanocyclopenta[18,19] [1,10,3,6]dioxadiazacyclononadecino[11, 12-b]quinoline-10-carboxamide]: the Ki worked out at 0.12 nM in assay [1] and 2.9 nM in assay [2].
